{
  "source": "patent US12448375B2",
  "about": "“Kinase inhibitors for the treatment of neurodegenerative diseases” (Ohio State Innovation Foundation, priority 2019, dated 2025)",
  "data": [
    {"target": "T1, JNK3 (Homo sapiens, UniProt P53779)", "T1 construct": "purchased Reaction Biology Corp", "T1 sequence (P53779 whole entry)": "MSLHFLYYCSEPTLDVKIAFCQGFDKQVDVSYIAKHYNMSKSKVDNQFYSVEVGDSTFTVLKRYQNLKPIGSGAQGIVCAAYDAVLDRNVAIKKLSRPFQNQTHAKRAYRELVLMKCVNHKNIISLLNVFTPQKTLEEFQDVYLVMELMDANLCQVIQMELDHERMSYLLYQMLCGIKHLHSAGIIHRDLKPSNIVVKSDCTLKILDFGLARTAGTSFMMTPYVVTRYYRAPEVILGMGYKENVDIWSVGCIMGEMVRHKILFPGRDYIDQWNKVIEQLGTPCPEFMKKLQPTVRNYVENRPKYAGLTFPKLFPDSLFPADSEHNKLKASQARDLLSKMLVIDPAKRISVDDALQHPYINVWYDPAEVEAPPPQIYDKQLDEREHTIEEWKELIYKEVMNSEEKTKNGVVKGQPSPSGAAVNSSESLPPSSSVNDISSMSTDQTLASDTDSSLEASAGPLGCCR", "assay": "HotSpot Kinase Assay (Reaction Biology Corp.), anti-JNK3 activity", "format": "biochemical", "conditions": "HotSpot radiometric assay, 33P-ATP", "description": "The anti-JNK3 activity of compounds prepared as in the previous examples was evaluated using a Reaction Biology Corp. HotSpot Kinase Assay. Base reaction buffer was 20 mM HEPES (4-(2-hydroxyethyl)-1-piperazineethanesulfonic acid) at pH 7.5 with 10 mM MgCl2, 1 mM EGTA (ethylene glycol-bis(β-aminoethyl ether)-N,N,N′,N′-tetracetic acid), 0.02% Brij™ 35, 0.02 mg/mL BSA (bovine serum albumin), 0.1 mM Na3VO4, 2 mM DTT (dithiothreitol), and 1% DMSO. Required cofactors were added individually to each kinase reaction.\nActivity against related enzymes JNK1 and P38a was further assessed using the same assay.", "units": {"IC50": "µM"}, "values": [
      {"smiles": "Cn1ccnc1NC(=O)c1cc(-n2ncc3cc(Nc4ccccc4Cl)cnc32)cs1", "note": "[Compound 67, 4-(5-((2-chlorophenyl)amino)-1H-pyrazolo[3,4-b]pyridin-1-yl)-N-(1-methyl-1H-imidazol-2-yl)thiophene-2-carboxamide]", "IC50": "< 0.2"},
      {"smiles": "CN1CCN=C1NC(=O)c1cc(-n2ncc3cc(Nc4ccccc4Cl)ncc32)cs1", "note": "[Compound 21, 4-(5-((2-chlorophenyl)amino)-1H-pyrazolo[3,4-c]pyridin-1-yl)-N-(1-methyl-4,5-dihydro-1H-imidazol-2-yl)thiophene-2-carboxamide]", "IC50": "< 0.2"},
      {"smiles": "O=C(NC1COC1)c1cc(-n2ncc3cc(Oc4ccccc4Cl)ncc32)cs1", "note": "[Compound 23, 4-(5-(2-chlorophenoxy)-1H-pyrazolo[3,4-c]pyridin-1-yl)-N-(oxetan-3-yl)thiophene-2-carboxamide]", "IC50": "0.2 to 1"},
      {"smiles": "COC(=O)N1CC(NC(=O)c2cc(-n3ncc4cc(Nc5ccccc5Cl)ccc43)cs2)C1", "note": "[Compound 33, Methyl 3-(4-(5-((2-chlorophenyl)amino)-1H-indazol-1-yl)thiophene-2-carboxamido)azetidine-1-carboxylate]", "IC50": "< 0.2"},
      {"smiles": "Cn1ccnc1NC(=O)c1cc(-n2ncc3nc(Nc4ccccc4Cl)ccc32)cs1", "note": "[Compound 59, 4-(5-((2-chlorophenyl)amino)-1H-pyrazolo[4,3-b]pyridin-1-yl)-N-(1-methyl-1H-imidazol-2-yl)thiophene-2-carboxamide]", "IC50": "0.2 to 1"},
      {"smiles": "CNC(=O)c1cc(-n2ncc3cc(Nc4cccc(F)c4Cl)ncc32)cs1", "note": "[Compound 24, 4-(5-((2-chloro-3-fluorophenyl)amino)-1H-pyrazolo[3,4-c]pyridin-1-yl)-N-methylthiophene-2-carboxamide]", "IC50": "< 0.2"},
      {"smiles": "O=C(N[C@H]1CCOC1)c1cc(-n2ncc3nc(Nc4ccccc4Cl)ccc32)cs1", "note": "[Compound 51, (S)-4-(5-((2-chlorophenyl)amino)-1H-pyrazolo[4,3-b]pyridin-1-yl)-N-(tetrahydrofuran-3-yl)thiophene-2-carboxamide]", "IC50": "< 0.2"},
      {"smiles": "Cn1cnc(NC(=O)c2cc(-n3ncc4cc(Nc5ccccc5Cl)ncc43)cs2)c1", "note": "[Compound 19, 4-(5-((2-chlorophenyl)amino)-1H-pyrazolo[3,4-c]pyridin-1-yl)-N-(1-methyl-1H-imidazol-4-yl)thiophene-2-carboxamide]", "IC50": "< 0.2"},
      {"smiles": "CCNC(=O)c1cc(-n2ncc3cc(Oc4ccccc4Cl)ncc32)cs1", "note": "[Compound 18, 4-(5-(2-chlorophenoxy)-1H-pyrazolo[3,4-c]pyridin-1-yl)-N-ethylthiophene-2-carboxamide]", "IC50": "< 0.2"},
      {"smiles": "N#CCNC(=O)c1cc(-n2ncc3cc(Nc4ccccc4Cl)ccc32)cs1", "note": "[Compound 46, 4-(5-((2-chlorophenyl)amino)-1H-indazol-1-yl)-N-(cyanomethyl)thiophene-2-carboxamide]", "IC50": "< 0.2"},
      {"smiles": "Cn1cnc(NC(=O)c2cc(-n3ncc4nc(Nc5ccccc5Cl)ccc43)cs2)c1", "note": "[Compound 57, 4-(5-((2-chlorophenyl)amino)-1H-pyrazolo[4,3-b]pyridin-1-yl)-N-(1-methyl-1H-imidazol-4-yl)thiophene-2-carboxamide]", "IC50": "< 0.2"},
      {"smiles": "Cn1cnc(NC(=O)c2cc(-n3ncc4cc(Nc5ccccc5Cl)cnc43)cs2)c1", "note": "[Compound 66, 4-(5-((2-chlorophenyl)amino)-1H-pyrazolo[3,4-b]pyridin-1-yl)-N-(1-methyl-1H-imidazol-4-yl)thiophene-2-carboxamide]", "IC50": "< 0.2"},
      {"smiles": "CNC(=O)c1cc(-n2ncc3nc(Nc4ccccc4Cl)ncc32)cs1", "note": "[Compound 41, 4-(5-((2-chlorophenyl)amino)-1H-pyrazolo[4,3-d]pyrimidin-1-yl)-N-methylthiophene-2-carboxamide]", "IC50": "0.2 to 1"},
      {"smiles": "CCNC(=O)c1cc(-n2ncc3cc(Oc4ccccc4Cl)cnc32)cs1", "note": "[Compound 73, 4-(5-(2-chlorophenoxy)-1H-pyrazolo[3,4-b]pyridin-1-yl)-N-ethylthiophene-2-carboxamide]", "IC50": "< 0.2"}
    ]}
  ]
}
